pIC50: −log10 of the molar value.
Experiments:
[1] = Mouse pharmacokinetic test; type: in vivo, ICR mice; conditions: plasma; for Tmax: read-out: Tmax
Description: Formulation preparation: The dosing solutions were prepared on the day of administration.
Six healthy male naive ICR mice weighing 25-30 g were selected and divided into two groups (intravenous and oral groups), with three mice in each group, and administered a single dose. […] Feeding was resumed 4 h after administration. Timing was initiated following intravenous and oral administration. […] The collected whole blood was briefly vortexed twice for mixing, placed on wet ice, and centrifuged at 4°C and 8000 rpm for 5 min within 1 h. The supernatant plasma was collected and stored at -80°C until processing and analysis. Table 3: Pharmacokinetics in mice

22RV1 cells = assay: Cell proliferation inhibition assay in 22RV1 cells (CellTiter-Glo, 7 days); type: cell-based, human; conditions: Homo sapiens
Description: • 1. The human prostate cancer cell lines 22RV1 and LNCaP were purchased from ATCC. […] The cell concentration was adjusted to an appropriate concentration (determined based on the results of cell density optimization experiments), and the cells were seeded into a 96-well plate. A 100 µL cell suspension was added, resulting in 3000 cells per well. […] On the second day, for 22Rv1 cells, test compounds at different concentrations were added, and the cells were incubated at 37°C in a 5% CO2 incubator for 7 days; for LNCaP cells, test compounds at different concentrations were added first, and after 1 hour of treatment, 0.2 nM DHT was added. The cells were then incubated at 37°C in a 5% CO2 incubator for 7 days. • 4. After the incubation period, a volume of CellTiter-Glo detection reagent equal to the volume of the culture medium was added to each well. The plate was shaken and mixed thoroughly for 5 minutes, then incubated at room temperature for 10 minutes. Readings were taken using a PerkinElmer EnVision microplate reader. • 5.
The IC50 curve was fitted and the IC50 value was calculated using the software GraphPad Prism 8 with the calculation formula XY-analysis/Nonlinear regression (curve fit)/Dose response-Inhibition/log (inhibitor) vs. response-Variable slope (four parameters).

Structure (SMILES) | AUC(0-inf) ([1]; po, 30 mg/kg, PO-30mpk) [µg·h/mL] | Cmax ([1]; po, 30 mg/kg, PO-30mpk) [ng/mL] | half-life ([1]; po, 30 mg/kg, PO-30mpk) [h] | Tmax ([1]; po, 30 mg/kg, PO-30mpk) [h] | pIC50 (22RV1 cells; 22Rv1, 168 h) | pIC50 (22RV1 cells; 168 h) | further results
CC(C)(c1ccc(-c2ccc(OCc3ccnc(N4CC(S(C)(=N)=O)C4)n3)cn2)cc1)c1cc(Cl)c(OCCCl)c(C#N)c1 (racemic) [Compound 242] | 607 | 78000 | 4.4 | 4 | 6.31 |  | 
CC(C)(c1ccc(-c2ccc(OCc3ccnc(N=S4(=O)CCCC4)n3)cn2)cc1)c1cc(Cl)c(OCCCl)c(C#N)c1 [Compound 16] | 211 | 36100 | 1.46 | 1.67 | 6.03 |  | 
CC(C)(c1ccc(-c2ccc(OCc3ccnc(P(C)(C)=O)n3)nc2)cc1)c1cc(Cl)c(OCCCl)c(C#N)c1 [Compound 17] | 420 | 35700 | 5.82 | 4.67 | 6.02 |  | C0 ([1]; 0.5 mg/kg, IV-0.5mpk): 982 ng/mL; clearance ([1]; 0.5 mg/kg, IV-0.5mpk): 1.1 mL/min/kg; bioavailability ([1]; 30 mg/kg, PO-30mpk vs IV-0.5mpk): 92.2%; AUC(0-inf) ([1]; iv, 0.5 mg/kg, IV-0.5mpk): 7.59 µg·h/mL; half-life ([1]; iv, 0.5 mg/kg, IV-0.5mpk): 5.6 h
CC(C)(c1ccc(-c2ccc(Oc3ccnc(P(C)(C)=O)n3)cc2)cc1)c1cc(Cl)c(OCCCl)c(C#N)c1 [Compound 26] | 368 | 29500 | 7.81 | 3.33 | 5.85 |  | 
CC(C)(c1ccc(-c2ccc(OCc3ccnc(N=S(C)(C)=O)n3)cc2)cc1)c1cc(Cl)c(OCCCl)c(C#N)c1 [Compound 44] | 219 | 11700 | 9.35 | 4.67 | 6.03 |  | 
CC(C)(c1ccc(-c2ccc(OCC3CN(c4ccnc(P(C)(C)=O)n4)C3)cc2)cc1)c1cc(Cl)c(OCCCl)c(C#N)c1 [Compound 70] | 187 | 14700 | 5.13 | 4 | 6.30 |  | 
CC(C)(c1ccc(-c2ccc(OCc3ccnc(N4CC5(COC5)C4)n3)cn2)cc1)c1cc(Cl)c(OCCCl)c(C#N)c1 [Compound 82] | 171 | 24900 | 8.3 | 2.7 | 6.07 |  | 
CC(C)(c1ccc(-c2ccc(OC3CCN(c4ccnc(P(C)(C)=O)n4)CC3)nc2)cc1)c1cc(Cl)c(OCCCl)c(C#N)c1 [Compound 103] | 247 | 18100 | 7.5 | 4 | 6.16 |  | 
CC(C)(c1ccc(-c2ccc(OCc3ccnc(P(C)(C)=O)n3)c(F)c2)cc1)c1cc(Cl)c(OCCCl)c(C#N)c1 [Compound 117] | 304 | 15700 | 12.1 | 4 | 6.17 |  | 
CC(C)(c1ccc(-c2ccc(OCc3ccnc(N4CC(P(C)(C)=O)C4)n3)cc2)cc1)c1cc(Cl)c(OCCCl)c(C#N)c1 [Compound 135] | 207 | 13600 | 5.6 | 6 | 6.64 |  | 
CC(C)(c1ccc(-c2ccc(OCc3ccnc(C4CN(S(C)(=O)=O)C4)n3)cc2)cc1)c1cc(Cl)c(OCCCl)c(C#N)c1 [Compound 145] | 273 | 15800 | 15.3 | 4 | 6.22 |  | 
CC(C)(c1ccc(-c2ccc(OCc3ccnc(N4CC(NS(C)(=O)=O)C4)n3)cc2)cc1)c1cc(Cl)c(OCCCl)c(C#N)c1 [Compound 161] | 376 | 11800 | 22.7 | 4 | 6.35 |  | 
CC(C)(c1ccc(-c2ccc(OCc3ccnc(N4CC(CS(C)(=O)=O)C4)n3)cc2)cc1)c1cc(Cl)c(OCCCl)c(C#N)c1 [Compound 175] | 320 | 9200 | 21.1 | 4 | 6.31 |  | 
CC(C)(c1ccc(-c2ccc(OCc3ccnc(N4CC(S(N)(=O)=O)C4)n3)cn2)cc1)c1cc(Cl)c(OCCCl)c(C#N)c1 [Compound 180] | 309 | 34600 | 5.17 | 3 | 6.10 |  | 
CC(C)(c1ccc(-c2ccc(OCc3cccc(S(C)(=N)=O)n3)cc2)cc1)c1cc(Cl)c(OCCCl)c(C#N)c1 (stereo not shown) [Compound 188] | 211 | 17300 | 7.5 | 3 | 5.99 |  | 
CC(C)(c1ccc(-c2ccc(C#Cc3ncc(P(C)(C)=O)cn3)cc2)cc1)c1cc(Cl)c(OCCCl)c(C#N)c1 [Compound 282] |  |  |  |  |  | 6.09 | 
CC(C)(c1ccc(-c2ccc(OCc3ccnc(N=S4(=O)CCN(CC(O)CC(F)(F)F)CC4)n3)cc2)cc1)c1cc(Cl)c(OCCCl)c(C#N)c1 (stereo not shown) [Compound 285] |  |  |  |  |  | 6.68 | 
CC(C)(c1ccc(-c2ccc(OCc3ccnc(N=S4(=O)CCN(C[C@@H](O)C(F)(F)F)CC4)n3)cc2)cc1)c1cc(Cl)c(OCCCl)c(C#N)c1 [Compound 286] |  |  |  |  |  | 6.15 | 
CC(C)(c1ccc(-c2ccc(OCc3ccnc(N=S4(=O)CCN(C[C@H](O)C(F)(F)F)CC4)n3)cc2)cc1)c1cc(Cl)c(OCCCl)c(C#N)c1 [Compound 287] |  |  |  |  |  | 6.17 | 
CC(C)(c1ccc(-c2ccc(/C=C/c3cnc(N=S4(=O)CCOCC4)nc3)cc2)cc1)c1cc(Cl)c(OCCCl)c(C#N)c1 [Compound 293] |  |  |  |  |  | 7.13 | 
CC(C)(c1ccc(-c2ccc(/C=C/c3ccnc(N=S4(=O)CCOCC4)n3)cc2)cc1)c1cc(Cl)c(OCCCl)c(C#N)c1 [Compound 294] |  |  |  |  |  | 6.09 | 

Structure (SMILES) | AUC(0-inf) ([1]; po, 30 mg/kg, PO-30mpk) [µg·h/mL] | Cmax ([1]; po, 30 mg/kg, PO-30mpk) [ng/mL] | half-life ([1]; po, 30 mg/kg, PO-30mpk) [h] | Tmax ([1]; po, 30 mg/kg, PO-30mpk) [h] | pIC50 (22RV1 cells; 22Rv1, 168 h) | pIC50 (22RV1 cells; 168 h) | further results
CC(C)(c1ccc(-c2ccc(OCC3CC(CN4CCS(=O)(=O)CC4)C3)cc2)cc1)c1cc(Cl)c(OCCCl)c(C#N)c1 (stereo not shown) [Compound 296] |  |  |  |  |  | 6.32 | 
CC(C)(c1ccc(-c2ccc(OCCN3CC4(C3)CS(=O)(=O)C4)cc2)cc1)c1cc(Cl)c(OCCCl)c(C#N)c1 [Compound 299] |  |  |  |  |  | 6.01 | 
CC(C)(c1ccc(-c2ccc(OCC3CC(CN4CC5(CCS(=O)(=O)CC5)C4)C3)cc2)cc1)c1cc(Cl)c(OCCCl)c(C#N)c1 (stereo not shown) [Compound 303] |  |  |  |  |  | 6.31 | 
Cc1cc(OCc2ccc(-c3cnc(P(C)(C)=O)nc3)cc2)ccc1-c1ccc(C(C)(C)c2cc(Cl)c(OCCCl)c(C#N)c2)cc1 [Compound 304] |  |  |  |  |  | 6.09 | 
CC(C)(c1ccc(-c2ccc(OCC3CC(CN4CC5(C4)CS(=N)(=O)C5)C3)cc2)cc1)c1cc(Cl)c(OCCCl)c(C#N)c1 (stereo not shown) [Compound 307] |  |  |  |  |  | 6.18 | 
CC(C)(c1ccc(-c2ccc(OCC3CCC(CN4CC5(C4)CS(=O)(=O)C5)CC3)cc2)cc1)c1cc(Cl)c(OCCCl)c(C#N)c1 (stereo not shown) [Compound 309] |  |  |  |  |  | 6.34 | 
CC(C)(c1ccc(-c2ccc(OCC3CN(C(=O)C4CC5(C4)CS(=O)(=O)C5)C3)cc2)cc1)c1cc(Cl)c(OCCCl)c(C#N)c1 [Compound 310] |  |  |  |  |  | 6.03 | 
CC(C)(c1ccc(-c2ccc(OCC3CC(CN4CC5(CCS(=N)(=O)CC5)C4)C3)cc2)cc1)c1cc(Cl)c(OCCCl)c(C#N)c1 (stereo not shown) [Compound 311] |  |  |  |  |  | 6.27 | 
C[C@@H](Cl)COc1c(Cl)cc(C(C)(C)c2ccc(-c3ccc(OCc4ccnc(P(C)(C)=O)n4)cc3)cc2)cc1C#N [Compound 313] |  |  |  |  |  | 6.05 | 
CNC1CN(c2nccc(COc3ccc(-c4ccc(C(C)(C)c5cc(Cl)c(OCCCl)c(C#N)c5)cc4)cc3)n2)C1 [Compound 314] |  |  |  |  |  | 5.94 | 
C[C@H](O)CN1CCS(=O)(=Nc2nccc(COc3ccc(-c4ccc(C(C)(C)c5cc(Cl)c(OCCCl)c(C#N)c5)cc4)cc3)n2)CC1 [Compound 316] |  |  |  |  |  | 6.17 | 
CC(C)(c1ccc(-c2ccc(OCC3CCC(CN4CC5(C4)CS(=N)(=O)C5)CC3)cc2)cc1)c1cc(Cl)c(OCCCl)c(C#N)c1 (stereo not shown) [Compound 318] |  |  |  |  |  | 6.14 | 
CC(C)(c1ccc(-c2ccc(OCC34CC(c5cnc(N6CC(S(C)(=O)=O)C6)nc5)(C3)C4)cc2)cc1)c1cc(Cl)c(OCCCl)c(C#N)c1 [Compound 321] |  |  |  |  |  | 5.92 | 
CC(C)(c1ccc(-c2ccc(OCCN3CCS(=N)(=O)CC3)cc2)cc1)c1cc(Cl)c(OCCCl)c(C#N)c1 [Compound 324] |  |  |  |  |  | 6.52 | 
CC(C)(c1ccc(-c2ccc(Oc3ccnc(P(C)(C)=O)n3)nc2)cc1)c1cc(Cl)c(OCCCl)c(C#N)c1 [Compound 326] |  |  |  |  |  | 6.01 | 
CC(C)(c1ccc(-c2ccc(OCC3CC4(C3)CS(=N)(=O)C4)cn2)cc1)c1cc(Cl)c(OCCCl)c(C#N)c1 (stereo not shown) [Compound 328] |  |  |  |  |  | 5.95 | 
CC(C)(c1ccc(-c2ccc(OCc3ccnc(N4CC5(CCS5(=N)=O)C4)n3)cc2)cc1)c1cc(Cl)c(OCCCl)c(C#N)c1 (stereo not shown) [Compound 329] |  |  |  |  |  | 6.41 | 
CC(C)(c1ccc(-c2ccc(OCCOc3nccc(P(C)(C)=O)n3)cc2)cc1)c1cc(Cl)c(OCCCl)c(C#N)c1 [Compound 330] |  |  |  |  |  | 6.55 | 
CC(C)(c1ccc(-c2ccc(OCc3ccnc(N4CC(S(=N)(=O)C5CC5)C4)n3)cn2)cc1)c1cc(Cl)c(OCCCl)c(C#N)c1 (stereo not shown) [Compound 336] |  |  |  |  |  | 6.17 | 
CC(C)(c1ccc(-c2ccc(OCC3CC4(C3)CN(c3ccnc(P(C)(C)=O)n3)C4)cc2)cc1)c1cc(Cl)c(OCCCl)c(C#N)c1 [Compound 393] |  |  |  |  |  | 6.06 | 

From patent EP4778922A1, “BICYCLIC COMPOUND, AND PREPARATION METHOD THEREFOR AND PHARMACEUTICAL USE THEREOF” (Shanghai Jeyou Pharmaceutical Co., Ltd., priority 2023, dated 2025)
